Among the test systems are CAKI-1 renal; SN12C renal; UACC-62 melanoma; OVCAR-4 ovarian; SF-295 CNS; TK-10 renal; SW-620 colon; UO-31 renal; NCI-H460 lung; MCF7 breast.
Holding throughout (test): growth of human tumour cells (NCI), 48 h

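Following 48 hours of exposure in 96-well plates, responses at five concentrations were used to interpolate endpoints linearly. GI50 = concentration required for 50% inhibition of growth. The concentration for full growth arrest is given as TGI.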

As for `N#C[S-].[Ce+3].c1cnc2c(c1)ccc1cccnc12.c1cnc2c(c1)ccc1cccnc12.c1cnc2c(c1)ccc1cccnc12`, the TGI came to 14.3 µM in the assay with CAKI-1 renal; 13.1 µM in the assay with SN12C renal; 10.1 µM in the assay with UACC-62 melanoma; 20.5 µM with OVCAR-4 ovarian; 1.45 µM with SF-295 CNS; 29.9 µM with TK-10 renal. Also, the TGI was 46.8 µM in the assay with SW-620 colon and 11.5 µM in the assay with UO-31 renal.
Turning to `COc1cc2c(cc1OC)-c1cc3ccc(OC)c(OC)c3c[n+]1CC2`, the TGI in the assay on NCI-H460 lung, with MCF7 breast, in the assay on CAKI-1 renal, in the assay on SN12C renal, in the assay with UACC-62 melanoma and with OVCAR-4 ovarian was greater than 100 µM throughout. Further, the TGI with SF-295 CNS, with TK-10 renal, in the assay with SW-620 colon and with UO-31 renal was greater than 100 µM throughout.
As to `O=C(NNC(=O)c1nsc2ccccc12)c1ccc(Cl)cc1`, the TGI was greater than 100 µM in the assay on NCI-H460 lung; 33.7 µM in the assay with SN12C renal; 48.9 µM in the assay with TK-10 renal; greater than 100 µM in the assay with SW-620 colon; 55.4 µM in the assay on UO-31 renal.
Regarding `CCOC(=O)c1c(CN2CCCC2)n(-c2ccccc2)c2cc(Br)c(OC)cc12`, the TGI with NCI-H460 lung is 35.3 µM; in the assay with MCF7 breast, 23.4 µM; with CAKI-1 renal, greater than 100 µM; in the assay on SN12C renal, greater than 100 µM; in the assay with UACC-62 melanoma it was 23.8 µM; in the assay with OVCAR-4 ovarian it was greater than 100 µM. Besides, the TGI in the assay on SF-295 CNS turned out to be 30.4 µM; in the assay with TK-10 renal it was 32.5 µM; in the assay with SW-620 colon, 73.9 µM; in the assay with UO-31 renal, 29.8 µM.
As for `CNC(=O)Nc1ccccc1`, the TGI in the assay on NCI-H460 lung, in the assay with MCF7 breast, in the assay on CAKI-1 renal, with SN12C renal, with UACC-62 melanoma and in the assay with OVCAR-4 ovarian was greater than 100 µM throughout. In addition, the TGI with SF-295 CNS, in the assay with TK-10 renal, in the assay with SW-620 colon and in the assay with UO-31 renal was greater than 100 µM throughout.
As to `C[N+](C)(CCO)CCN1c2ccccc2Sc2ccccc21`, the TGI in the assay on NCI-H460 lung, in the assay on MCF7 breast, in the assay on CAKI-1 renal, with SN12C renal, in the assay on UACC-62 melanoma and with OVCAR-4 ovarian was greater than 10 µM each time. The TGI in the assay with SF-295 CNS, in the assay on TK-10 renal, in the assay on SW-620 colon and with UO-31 renal was greater than 10 µM throughout.
Regarding `O=C1C[C@H](CCC(=O)OCc2ccccc2)NC(=O)C[C@H](CCC(=O)OCc2ccccc2)NC(=O)C[C@H](CCC(=O)OCc2ccccc2)N1`, the TGI in the assay on NCI-H460 lung, with MCF7 breast, with CAKI-1 renal, in the assay on SN12C renal, in the assay with UACC-62 melanoma and in the assay with OVCAR-4 ovarian was greater than 100 µM each time. The TGI was 42.8 µM in the assay on SF-295 CNS, 25.4 µM in the assay on TK-10 renal, greater than 100 µM in the assay with SW-620 colon and greater than 100 µM in the assay on UO-31 renal.
As to `Clc1ccc(-c2nnc(-c3c(Cl)c(Cl)c(Cl)c(Cl)c3-c3nc4ccccc4[nH]3)o2)cc1`, the TGI with NCI-H460 lung, in the assay with MCF7 breast, with CAKI-1 renal, in the assay with SN12C renal, with UACC-62 melanoma and in the assay with OVCAR-4 ovarian was greater than 100 µM in each case. For the same molecule, the TGI in the assay with SF-295 CNS, in the assay on SW-620 colon and in the assay on UO-31 renal was greater than 100 µM in each case.
Regarding `COc1ccc(C)cc1Nc1nnc(-c2ccc(N)cc2)s1`, the TGI in the assay with NCI-H460 lung, with MCF7 breast, in the assay on CAKI-1 renal, in the assay with SN12C renal, with UACC-62 melanoma and in the assay with OVCAR-4 ovarian was greater than 100 µM throughout. The TGI with SF-295 CNS, in the assay with SW-620 colon and in the assay on UO-31 renal was greater than 100 µM in each case.
`O=c1/c(=C/c2ccc([N+](=O)[O-])o2)sc2n1[C@@H](c1ccc3c(c1)OCO3)C=C(c1cc(F)c(Cl)cc1Cl)N=2`: the TGI with NCI-H460 lung was determined as 49.8 µM; in the assay with MCF7 breast, 32.4 µM; in the assay with CAKI-1 renal, 33.6 µM; in the assay on SN12C renal, 56.7 µM; in the assay with UACC-62 melanoma, 34 µM; with OVCAR-4 ovarian, 32.6 µM. Also, the TGI was greater than 100 µM with SF-295 CNS, 47.8 µM with TK-10 renal, greater than 100 µM in the assay on SW-620 colon and 42.2 µM with UO-31 renal.
For the molecule `CC(=O)C1=C(O)CCC1=O`, the TGI with NCI-H460 lung, with MCF7 breast, in the assay with CAKI-1 renal, with SN12C renal, in the assay on UACC-62 melanoma and in the assay on OVCAR-4 ovarian was greater than 100 µM each time. Moreover, the TGI in the assay with SF-295 CNS, in the assay on TK-10 renal, in the assay on SW-620 colon and with UO-31 renal was greater than 100 µM throughout.
In the case of `Cn1c(=O)c2c(nc(NCCNc3nc4c(c(=O)n(C)c(=O)n4C)n3C)n2C)n(C)c1=O`, the TGI in the assay on NCI-H460 lung, in the assay with CAKI-1 renal, with SN12C renal, in the assay on UACC-62 melanoma, in the assay with OVCAR-4 ovarian and in the assay with SF-295 CNS was greater than 100 µM each time. Moreover, the TGI with TK-10 renal, with SW-620 colon and with UO-31 renal was greater than 100 µM in each case.
As for `NC(CC(=O)O)(Cc1ccccc1)C(=O)O` (centres undefined), the TGI with NCI-H460 lung, in the assay on MCF7 breast, in the assay with CAKI-1 renal, in the assay with SN12C renal, in the assay on UACC-62 melanoma and in the assay on OVCAR-4 ovarian was greater than 100 µM each time. Also, the TGI with SF-295 CNS, in the assay on TK-10 renal, with SW-620 colon and in the assay with UO-31 renal was greater than 100 µM in each case.
In the case of `C[C@]12CCC(=O)C=C1CC[C@@H]1[C@@H]2[C@@H](O)C[C@@]2(C)[C@H]1CC[C@]2(O)C(=O)COC(=O)C1CCCC1`, the TGI in the assay on NCI-H460 lung, with MCF7 breast, in the assay with CAKI-1 renal, in the assay on SN12C renal, in the assay on UACC-62 melanoma and in the assay with OVCAR-4 ovarian was greater than 100 µM throughout. Further, the TGI in the assay on SF-295 CNS, in the assay with TK-10 renal, in the assay on SW-620 colon and with UO-31 renal was greater than 100 µM throughout.
As to `COc1ccc2nc3ccccc3c(NCc3ccc(C)cc3)c2c1`, the GI50 is 1.97 µM in the assay on NCI-H460 lung; 1.59 µM in the assay with CAKI-1 renal; 1.64 µM in the assay with SN12C renal; 1.64 µM in the assay on UACC-62 melanoma; 2.25 µM in the assay with OVCAR-4 ovarian; 1.34 µM with SF-295 CNS. Further, the GI50 was 1.97 µM with TK-10 renal, 1.57 µM in the assay on SW-620 colon and 1.28 µM in the assay with UO-31 renal. Besides, the TGI with NCI-H460 lung was 4.15 µM; with CAKI-1 renal it was 2.98 µM; with SN12C renal, 3.78 µM; in the assay on UACC-62 melanoma, 3.26 µM; in the assay with OVCAR-4 ovarian, 6.51 µM; in the assay on SF-295 CNS it was 2.74 µM. In addition, the values for the TGI in the assay on TK-10 renal, in the assay on SW-620 colon and in the assay on UO-31 renal were 4.15 µM, 4.24 µM and 2.65 µM, respectively.
As for `Cc1ccc(SSCCCCCS(=O)O)cc1`, the TGI was greater than 100 µM in the assay with NCI-H460 lung; 49 µM with SN12C renal; 49.5 µM in the assay with UACC-62 melanoma; greater than 100 µM in the assay with OVCAR-4 ovarian; 75.4 µM in the assay with TK-10 renal; 67.2 µM with UO-31 renal.
In the case of `O=C(COc1ccc(Cl)cc1Cl)N/N=C/C=C/c1ccc([N+](=O)[O-])o1`, the TGI is greater than 100 µM in the assay with NCI-H460 lung; greater than 100 µM in the assay with MCF7 breast; greater than 100 µM in the assay on CAKI-1 renal; greater than 100 µM with SN12C renal; greater than 100 µM in the assay on UACC-62 melanoma; 61.8 µM in the assay with OVCAR-4 ovarian. For the same molecule, the TGI in the assay with SF-295 CNS was greater than 100 µM; in the assay on TK-10 renal, 91.5 µM; in the assay on SW-620 colon, greater than 100 µM; in the assay with UO-31 renal it was greater than 100 µM.
